Values quoted from earlier work as cited in paper PMC11327090, “The Nectin family ligands, PVRL2 and PVR, in cancer immunology and immunotherapy” (Frontiers in Immunology, 2024).

How the values were obtained:
[1] = tested on: Myeloma cells; set-up: method as in PMID 19098271; settings: treated myeloma cells
[2] = tested on: breast cancer cell lines; set-up: method as in PMID 30039180; settings: in vitro
[3] = tested on: non-small cell lung cancer; set-up: method as in PMID 35576957; settings: phase II trial

Compound | PVRL2 and PVR expression [1] | PVR expression [2] | objective response rate [3] [%] | Median progression-free survival ([3]; 95% CI in brackets) [months]
COc1cccc2c1C(=O)c1c(O)c3c(c(O)c1C2=O)C[C@@](O)(C(=O)CO)C[C@@H]3O[C@H]1C[C@H](N)[C@H](O)[C@H](C)O1 [Adriamycin] | upregulate PVRL2 and PVR expression | increases PVR expression | – | –
CC(C)C[C@H](NC(=O)[C@H](Cc1ccccc1)NC(=O)c1cnccn1)B(O)O [bortezomib] | upregulate PVRL2 and PVR expression | – | – | –
N[C@@H](Cc1ccc(N(CCCl)CCCl)cc1)C(=O)O [melphalan] | upregulate PVRL2 and PVR expression | – | – | –
placebo plus atezolizumab: anti-PD-L1 antibody atezolizumab with placebo, comparator arm of the phase II trial | – | – | 16.2 | 3.6
